One assay has as its target T1, h-TGR5 (Homo sapiens, UniProt Q8TDU6).
T1 sequence (Q8TDU6 1-330): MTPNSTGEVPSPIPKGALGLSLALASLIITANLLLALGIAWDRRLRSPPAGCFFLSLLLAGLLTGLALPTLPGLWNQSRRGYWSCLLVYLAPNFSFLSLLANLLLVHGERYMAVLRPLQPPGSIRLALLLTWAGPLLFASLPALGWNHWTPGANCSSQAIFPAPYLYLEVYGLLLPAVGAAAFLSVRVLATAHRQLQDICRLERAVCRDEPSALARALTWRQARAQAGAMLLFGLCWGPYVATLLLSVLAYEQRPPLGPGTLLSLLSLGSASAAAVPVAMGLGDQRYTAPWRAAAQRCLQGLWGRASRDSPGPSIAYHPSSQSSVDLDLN
Kind of assay: TGR5 cAMP Assay using Cisbio cAMP Dynamic 2 htrf assay kit. It is filed as cell-based. To be noted: hTGR5CRE-luc HEK 293 cells.

In another assay the target is T2, human TGR5 (h-TGR5) (Homo sapiens, UniProt Q8TDU6).
T2 sequence (Q8TDU6 1-330): T1 sequence (Q8TDU6 1-330)
Put plainly: TGR5/CRE-Luciferase Assay. The class given is cell-based. The conditions noted are these: HEK 293 hTGR5/CRE-Luc cells, 6 hours incubation, read-out: CRE-Luc Agonist (EC50). The procedure, abridged:
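HEK 293 CRE-Luciferase cells stably expressing the receptor, plated in DMEM 18-20 h before assay, then exposed to serially diluted compounds (DMEM with 5% DMSO) for 6 h. Luciferase read-out after lysis; EC50 from dose-response.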

The term EC50 denotes the concentration needed to bring the measured effect to its halfway point. Consider `COc1cc(-n2c(C(C)(C)c3ccc(Cl)c(Cl)c3)cnc2SCc2c(F)cc(C(=O)NCC[N+](C)(C)C)cc2Cl)ccc1F` [Example 2n, 2-[({3-chloro-4-[({5-[1-(3,4-dichlorophenyl)-1-methylethyl]-1-[4-fluoro-3-(methyloxy)phenyl]-1H-imidazol-2-yl}thio)methyl]-5-fluorophenyl}carbonyl)amino]-N,N,N-trimethylethanaminium], for which the EC50 on h-TGR5 and on human TGR5 (h-TGR5) was under 100 nM throughout.

For `COc1cc(-n2c(C(C)(C)c3ccc(Cl)c(Cl)c3)cnc2SCc2c(F)cc(C(=O)N[C@H]3CCC[N+](C)(C)C3)cc2Cl)ccc1F` [Example 2o, (3S)-3-[({3-chloro-4-[({5-[1-(3,4-dichlorophenyl)-1-methylethyl]-1-[4-fluoro-3-(methyloxy)phenyl]-1H-imidazol-2-yl}thio)methyl]-5-fluorophenyl}carbonyl)amino]-1,1-dimethylpiperidinium], the EC50 on h-TGR5 and on human TGR5 (h-TGR5) was under 100 nM throughout.

Regarding `COc1cc(C(C)(C)c2cnc(SCc3c(F)cc(C(=O)N[C@H]4CCC[N+](C)(C)C4)cc3Cl)n2-c2ccc(F)cc2)ccc1F` [Example 2p, (3S)-3-({[3-chloro-5-fluoro-4-({[5-{1-[4-fluoro-3-(methyloxy)phenyl]-1-methylethyl}-1-(4-fluorophenyl)-1H-imidazol-2-yl]thio}methyl)phenyl]carbonyl}amino)-1,1-dimethylpiperidinium], the EC50 at h-TGR5 and on human TGR5 (h-TGR5) was under 100 nM each time.

Take `COc1cc(C(C)(C)c2cnc(SCc3c(F)cc(C(=O)N[C@H]4CC[N+](C)(C)C4)cc3Cl)n2-c2ccc(F)cc2)ccc1F` [Example 2q, (3S)-3-({[3-chloro-5-fluoro-4-({[5-{1-[4-fluoro-3-(methyloxy)phenyl]-1-methylethyl}-1-(4-fluorophenyl)-1H-imidazol-2-yl]thio}methyl)phenyl]carbonyl}amino)-1,1-dimethylpyrrolidinium]: the EC50 at h-TGR5 and on human TGR5 (h-TGR5) was under 100 nM throughout.

With `COc1cc(-n2c(C(C)(C)c3ccc(Cl)c(Cl)c3)cnc2SCc2c(F)cc(C(=O)N[C@H]3CC[N+](C)(C)C3)cc2Cl)ccc1F` [Example 2r, (3S)-3-[({3-chloro-4-[({5-[1-(3,4-dichlorophenyl)-1-methylethyl]-1-[4-fluoro-3-(methyloxy)phenyl]-1H-imidazol-2-yl}thio)methyl]-5-fluorophenyl}carbonyl)amino]-1,1-dimethylpyrrolidinium], the EC50 at h-TGR5 and on human TGR5 (h-TGR5) was under 100 nM each time.

Take `COc1cc(C(C)(C)c2cnc(SCc3c(F)cc(C(=O)NC4CC[N+](C)(CC(=O)O)CC4)cc3Cl)n2-c2ccc(F)cc2)ccc1Cl` (centres unmarked) [Example 3, 1-(Carboxymethyl)-4-(3-chloro-4-((5-(2-(4-chloro-3-methoxyphenyl)propan-2-yl)-1-(4-fluorophenyl)-1H-imidazol-2-ylthio)methyl)-5-fluorobenzamido)-1-methyl-piperidinium 2,2,2-trifluoroacetate]: the EC50 on h-TGR5 and at human TGR5 (h-TGR5) was under 100 nM each time.

For `COc1cc(C(C)(C)c2cnc(SCc3c(F)cc(C(=O)NCC[N+](C)(C)CCCS(=O)(=O)[O-])cc3Cl)n2-c2ccc(F)cc2)ccc1Cl` [Example 4, 3-((2-(3-Chloro-4-((5-(2-(4-chloro-3-methoxyphenyl)propan-2-yl)-1-(4-fluorophenyl)-1H-imidazol-2-ylthio)methyl)-5-fluorobenzamido)ethyl)dimethylammonio)-propane-1-sulfonate], the EC50 at h-TGR5 and at human TGR5 (h-TGR5) was under 100 nM each time.

For the compound `COc1cc(C(C)(C)c2cnc(SCc3c(F)cc(NC(=O)NCC[N+](C)(C)C)cc3Cl)n2-c2ccc(F)cc2)ccc1Cl` [Example 5], the EC50 on h-TGR5 and at human TGR5 (h-TGR5) was under 100 nM each time.

As for `COc1cc(C(C)(C)c2cnc(SCc3c(F)cc(S(=O)(=O)NCCC[N+](C)(C)C)cc3F)n2-c2ccc(F)cc2)ccc1Cl` [Example 6, 3-(4-((5-(2-(4-Chloro-3-methoxyphenyl)propan-2-yl)—(4-fluorophenyl)-1H-imidazol-2-ylthio)methyl)-3,5-difluorophenylsulfonamido)-N,N,N-trimethylpropan-1-aminium 2,2,2-trifluoroacetate], the EC50 on h-TGR5 and at human TGR5 (h-TGR5) was under 100 nM each time.

In the case of `COc1cc(C(C)(C)c2cnc(SCc3c(F)cc(S(=O)(=O)NCCC[N+](C)(C)C)cc3Cl)n2-c2ccc(F)cc2)ccc1F` [Example 6a, 3-({[3-chloro-5-fluoro-4-({[5-{1-[4-fluoro-3-(methyloxy)phenyl]-1-methylethyl}-1-(4-fluorophenyl)-1H-imidazol-2-yl]thio}methyl)phenyl]sulfonyl}amino)-N,N,N-trimethylpropan-1-aminium], the EC50 at h-TGR5 and on human TGR5 (h-TGR5) was under 100 nM throughout.

In the case of `COc1cc(-n2c(C(C)(C)c3ccc(S(N)(=O)=O)c(Cl)c3)cnc2SCc2c(F)cc(S(=O)(=O)NCCC[N+](C)(C)C)cc2F)ccc1F` [Example 6b, 3-{[(4-{[(5-{1-[4-(aminosulfonyl)-3-chlorophenyl]-1-methylethyl}-1-[4-fluoro-3-(methyloxy)phenyl]-1H-imidazol-2-yl)thio]methyl}-3,5-difluorophenyl)sulfonyl]amino}-N,N,N-trimethylpropan-1-aminium], the EC50 on h-TGR5 and at human TGR5 (h-TGR5) was under 100 nM each time.

`CC[N+](CC)(CC)CCCNS(=O)(=O)c1cc(F)c(CSc2ncc(C(C)(C)c3ccc(Cl)c(OC)c3)n2-c2ccc(F)cc2)c(Cl)c1` [Example 6c, 3-({[3-chloro-4-({[5-{1-[4-chloro-3-(methyloxy)phenyl]-1-methylethyl}-1-(4-fluorophenyl)-1H-imidazol-2-yl]thio}methyl)-5-fluorophenyl]sulfonyl}amino)-N,N,N-triethylpropan-1-aminium]: the EC50 at h-TGR5 and on human TGR5 (h-TGR5) was under 100 nM throughout.

Regarding `COc1cc(C(C)(C)c2nnc(SCc3c(F)cc(S(=O)(=O)NCCC[N+](C)(C)C)cc3F)n2-c2ccc(F)cc2)ccc1Cl` [Example 6d, 3-({[4-({[5-{1-[4-chloro-3-(methyloxy)phenyl]-1-methylethyl}-4-(4-fluorophenyl)-4H-1,2,4-triazol-3-yl]thio}methyl)-3,5-difluorophenyl]sulfonyl}amino)-N,N,N-trimethylpropan-1-aminium], the EC50 at h-TGR5 and on human TGR5 (h-TGR5) was under 100 nM in each case.

`COc1cc(-n2c(C(C)(C)c3ccc(Cl)c(Cl)c3)cnc2SCc2c(F)cc(S(=O)(=O)NCCC[N+](C)(C)C)cc2F)ccc1F` [Example 6e, 3-[({4-[({5-[1-(3,4-dichlorophenyl)-1-methylethyl]-1-[4-fluoro-3-(methyloxy)phenyl]-1H-imidazol-2-yl}thio)methyl]-3,5-difluorophenyl}sulfonyl)amino]-N,N,N-trimethylpropan-1-aminium]: the EC50 at h-TGR5 and on human TGR5 (h-TGR5) was under 100 nM in each case.

Turning to `COc1cc(C(C)(C)c2cnc(SCc3c(F)cc(S(=O)(=O)NCCC[N+](C)(C)C)cc3F)n2-c2ccc(F)cc2)ccc1F` [Example 6f, 3-({[3,5-difluoro-4-({[5-{1-[4-fluoro-3-(methyloxy)phenyl]-1-methylethyl}-1-(4-fluorophenyl)-1H-imidazol-2-yl]thio}methyl)phenyl]sulfonyl}amino)-N,N,N-trimethylpropan-1-aminium], the EC50 on h-TGR5 and at human TGR5 (h-TGR5) was under 100 nM throughout.

For the compound `COC(=O)c1cc(-n2c(C(C)(C)c3ccc(Cl)c(OC)c3)cnc2SCc2c(F)cc(S(=O)(=O)NCCC[N+](C)(C)C)cc2F)ccc1F` [Example 6g, 3-{[(4-{[(5-{1-[4-chloro-3-(methyloxy)phenyl]-1-methylethyl}-1-{4-fluoro-3-[(methyloxy)carbonyl]phenyl}-1H-imidazol-2-yl)thio]methyl}-3,5-difluorophenyl)sulfonyl]amino}-N,N,N-trimethylpropan-1-aminium], the EC50 on h-TGR5 and at human TGR5 (h-TGR5) was 100 to 1000 nM in each case.

Regarding `COc1cc(-n2c(C(C)(C)c3ccc(F)c(Cl)c3)cnc2SCc2c(F)cc(S(=O)(=O)NCCC[N+](C)(C)C)cc2F)ccc1F` [Example 6h, 3-[({4-[({5-[1-(3-chloro-4-fluorophenyl)-1-methylethyl]-1-[4-fluoro-3-(methyloxy)phenyl]-1H-imidazol-2-yl}thio)methyl]-3,5-difluorophenyl}sulfonyl)amino]-N,N,N-trimethylpropan-1-aminium], the EC50 on h-TGR5 and at human TGR5 (h-TGR5) was under 100 nM each time.

In the case of `COc1cc(C(C)(C)c2cnc(SCc3c(F)cc(S(=O)(=O)N(CCC[N+](C)(C)C)CCC[N+](C)(C)C)cc3F)n2-c2ccc(F)cc2)ccc1Cl` [Example 6i, 3,3′-({[4-({[5-{1-[4-chloro-3-(methyloxy)phenyl]-1-methylethyl}-1-(4-fluorophenyl)-1H-imidazol-2-yl]thio}methyl)-3,5-difluorophenyl]sulfonyl}imino)bis(N,N,N-trimethylpropan-1-aminium)], the figures for the EC50 on h-TGR5 and on human TGR5 (h-TGR5) were under 100 nM and 100 to 1000 nM, respectively.

In the case of `COc1cc(C(C)(C)c2cnc(SCc3c(F)cc(S(=O)(=O)NCCC[N+](C)(C)C)cc3Cl)n2-c2ccc(F)cc2)ccc1Cl` [Example 6j, 3-({[3-chloro-4-({[5-{1-[4-chloro-3-(methyloxy)phenyl]-1-methylethyl}-1-(4-fluorophenyl)-1H-imidazol-2-yl]thio}methyl)-5-fluorophenyl]sulfonyl}amino)-N,N,N-trimethylpropan-1-aminium], the EC50 at h-TGR5 and at human TGR5 (h-TGR5) was under 100 nM each time.

Source of the values: patent US8846739B2, “TGR5 agonists” (Exelixis Patent Company LLC, priority 2009, dated 2014).
